Test results taken from ChEMBL document CHEMBL1158407, “Synthesis of conjugated spermine derivatives with 7-nitrobenzoxadiazole (NBD), rhodamine and bodipy as new fluorescent probes for the polyamine transport system” (2009).
Activity calls are given as the source filed them. The rule behind the calls is not given here.

Assays:
[1] = Cellular uptake in F14512 co-cultured human NAMALWA cells assessed as decrease in fluorescence at 0.1 uM after 2 hrs by FACS analysis relative to control; format: functional, cell-based; parameters: scale not given: the % may be the effect or the level left; conditions: NAMALVA
[2] = Cellular uptake in human NAMALWA cells assessed as fluorescence intensity at 1 uM after 2 hrs by FACS analysis relative to control; format: functional, cell-based; conditions: NAMALVA
CHO-MG = test: Differential fluorescence intensity index, ratio of cellular uptake in Chinese hamster CHO cells expressing PTS to cellular uptake in PTS deficient […] CHO-MG cells at 1 uM after 2 hrs by microscopy and FACS analysis; format: functional, Cricetulus griseus

Compound	Activity [1]	Flu intensity [2]	fold change (FC) (CHO-MG)	fold change (FC) (CHO-MG; Cricetulus griseus)
CN(C)S(=O)(=O)c1ccc(N2CCN(C(=O)CNCCCNCCCCNCCCN)CC2)c2nonc12	inactive	0		
CCN(CC)c1ccc2c(-c3ccc(NC(=S)NCCCNCCCCNCCCN)cc3C(=O)[O-])c3ccc(=[N+](CC)CC)cc-3oc2c1	inactive			
CN(CCCNCCCCNCCCN)c1ccc([N+](=O)[O-])c2nonc12	> 70%	56	10	
NCCCNCCCCNCCCNCC(=O)N1CCN(c2ccc([N+](=O)[O-])c3nonc23)CC1	inactive	2.9		
CCN(CC)c1ccc2c(-c3ccc(S(=O)(=O)[O-])cc3S(=O)(=O)NCCCNCCCCNCCCN)c3ccc(=[N+](CC)CC)cc-3oc2c1	inactive	1.3		
CCN(CC)c1ccc2c(-c3ccc(S(=O)(=O)NCCCNCCCCNCCCN)cc3S(=O)(=O)[O-])c3ccc(=[N+](CC)CC)cc-3oc2c1	inactive	2.9		
NCCCNCCCCNCCCNC(=S)Nc1ccc(-c2c3ccc(=O)cc-3oc3cc(O)ccc23)c(C(=O)O)c1	inactive	7.9		
CCN(CC)c1ccc2c(-c3cccc(NC(=S)NCCCNCCCCNCCCN)c3C(=O)[O-])c3ccc(=[N+](CC)CC)cc-3oc2c1	inactive	15		
NCCCCNc1ccc([N+](=O)[O-])c2nonc12				inactive
CCC1=C(C)/C(=C(\c2ccc(NC(=O)CNCCCNCCCCNCCCN)cc2)c2c(C)c(CC)c(C)n2B(F)F)N=C1C	50%	839		inactive
NCCCNCCCCN(CCCN)C(=S)Nc1ccc(-c2c3ccc(=O)cc-3oc3cc(O)ccc23)c(C(=O)O)c1	inactive	8.1		
O=[N+]([O-])c1ccc(N2CCNCC2)c2nonc12	inactive	1.1		
NCCCNCCCCNCCCNc1ccc([N+](=O)[O-])c2nonc12	> 70%	65	10	
O=[N+]([O-])c1ccc(NCCCNCCCCNCCCNc2ccc([N+](=O)[O-])c3nonc23)c2nonc12	inactive	627		inactive
NCCCNCCCCNCCCNc1ccc(N)c2nonc12	inactive	0		
CCC1=C(C)/C(=C(\c2ccc(N)cc2)c2c(C)c(CC)c(C)n2B(F)F)N=C1C	50%	3180		
CN(C)S(=O)(=O)c1ccc(NCCCNCCCCNCCCN)c2nonc12	inactive	0		
CCC1=C(C)/C(=C(\c2ccc([N+](=O)[O-])cc2)c2c(C)c(CC)c(C)n2B(F)F)N=C1C	50%	1390		
CNc1ccc([N+](=O)[O-])c2nonc12	inactive	0.5		inactive
